Source: article PMC2919388, “A Screening Pipeline for Antiparasitic Agents Targeting Cryptosporidium Inosine Monophosphate Dehydrogenase” (PLoS Neglected Tropical Diseases, 2010)
Like-named read-outs stand apart in the source and are kept apart here.

What was measured:
T. gondii-ΔHXGPRT = assay: Fluorescent T. gondii growth assay, ΔHXGPRT strain; format: cell-based; details: Toxoplasma gondii, read-out: T. gondii model EC50 ΔHXGPRT, T. gondii-ΔHXGPRT
Source text: (§1) Wild-type T. gondii and T. gondii-ΔHXGPRT parasites were transfected with plasmid ptubYFPYFsagCAT [37] which drives constitutive cytoplasmic expression of two copies of the yellow fluorescent protein. Similarly, plasmid pCTR2T [38] was transfected into T. gondii-CpIMPDH resulting in constitutive cytoplasmic expression of a tandem of the tomato variant of the red fluorescent protein [39]. Fluorescent parasites were selected and cloned by cell sorting using a MoFlo Legacy instrument (Beckman Coulter, Inc). Growth of fluorescent clones was monitored in 96 well plates as previously described. Briefly, fluorescence was read daily with a SpectraMax M22/M2e (Molecular Devices) plate reader (Ex 485, Em 530) for 6–7 days. For each of the three fluorescent T. gondii clones percent growth inhibition was calculated on a day within the exponential phase of growth for the purpose of determining an IC50 for each compound.
(§2) Supplementary file pntd.0000794.s002.tif: Figure S2 Obtaining an EC50 value for T. gondii growth. Fluorescent T. gondii parasites are seeded into 96-well plates and spiked with test compound. Fluorescence is measured daily with a SpectraMax M22/M2e (Molecular Devices) plate reader for 6–7 days. The fluorescence readings on a day during the exponential phase of the growth curve, for example day 4 in A, are used to calculated percent growth inhibition. These values are fitted using the 4 parameter model y = D+(A–D)/(1+(x/C)^B) where D is the minimum value, A is the maximum value, C is the EC50 and B is the Hill coefficient, using the SoftMax Pro v5 software, as illustrated in B. The absolute EC50 is recorded at the x intercept where y = 50. (0.33 MB TIF) Click here for additional data file.

HCT-8 cells = assay: Fluorescent HCT-8 host cell growth assay; format: cell-based, human; details: for activity at 25 µM: Homo sapiens, HCT-8, compound at 25 μM, relative to DMSO alone
Procedure: HCT-8 cells were transfected with plasmid pmaxGFP (Amaxa) using Lipofectamine (Invitrogen). Fluorescent lines were then selected and cloned using cell sorting. Confluent monolayers of pmaxGFP expressing cells were harvested from T75 flasks and passed through a 40 µm cell strainer. Cells were seeded at 4000 cells per well into black, optical quality, thin bottom, 96-well plates. All test compounds were diluted in DMSO as described. The fluorescence was read daily with a SpectraMax M22/M2e (Molecular Devices) plate reader (Ex 485, Em 530) for 6–7 days. Percent inhibition was calculated on a day within the exponential phase of growth.

T. gondii-CpIMPDH = assay: Fluorescent T. gondii growth assay, CpIMPDH reporter strain; format: cell-based, Toxoplasma gondii; details: for Selectivity = EC50(T. gondii-wild-type)/EC50(T. gondii-CpIMPDH): Figure 5 Sel; for EC50: Toxoplasma gondii, read-out: T. gondii model EC50 CpIMPDH, T. gondii-CpIMPDH, absence of xanthine
Source text: as §1
To facilitate screening of antiparasitic activity, we constructed a T. gondii reporter parasite that mirrors the Cryptosporidium purine metabolism. Figure 1 summarizes the main differences between the two parasites in this pathway. We started with a T. gondii knockout mutant that, like C. parvum, lacks the ability to salvage xanthine and guanine via HXGPRT (T. gondii-ΔHXGPRT [41]) and introduced the CpIMPDH gene under the control of a T. gondii promoter. Next the native T. gondii IMPDH gene was disrupted by replacing the entire coding sequence with a chloramphenicol acetyl transferase cassette using a new cosmid-based gene targeting approach. […] This manipulation created strain T. gondii-CpIMPDH-ΔHXGPRT-ΔTgIMPDH. Lastly, we introduced a fluorescent protein cassette and isolated stable transgenic parasites by cell sorting. The resulting strain is referred to as T. gondii-CpIMPDH. […] We similarly engineered fluorescent versions of wild-type T. gondii and T. gondii-ΔHXGPRT to serve as controls.
as §2

CpIMPDH [1] = target: T1, CpIMPDH (Cryptosporidium parvum, UniProt Q8T6T2); assay: CpIMPDH enzyme inhibition (without or with BSA); format: biochemical; details: compound not previously described
T1 sequence (Q8T6T2 whole entry): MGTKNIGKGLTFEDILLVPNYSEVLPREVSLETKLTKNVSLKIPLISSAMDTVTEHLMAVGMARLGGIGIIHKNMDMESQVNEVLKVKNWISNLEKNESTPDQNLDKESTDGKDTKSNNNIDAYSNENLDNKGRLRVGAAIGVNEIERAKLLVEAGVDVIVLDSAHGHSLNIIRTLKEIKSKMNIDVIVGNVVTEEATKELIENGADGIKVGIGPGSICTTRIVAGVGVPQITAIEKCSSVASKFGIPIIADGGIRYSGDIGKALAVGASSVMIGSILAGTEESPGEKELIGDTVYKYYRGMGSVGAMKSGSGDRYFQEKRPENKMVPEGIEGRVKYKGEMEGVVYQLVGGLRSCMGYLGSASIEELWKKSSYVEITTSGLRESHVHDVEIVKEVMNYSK
Procedure: We wondered if some compounds might be binding nonspecifically to other proteins. To test this hypothesis, CpIMPDH inhibition was also evaluated in the presence of BSA [22]. […] Selectivity in the T. gondii model also correlates well with the potency of enzyme inhibition in the presence of BSA (Figure 7C; r = −0.92, p<0.0001). These observations indicate that the IC50 value in the presence of BSA is a useful proxy for antiparasitic activity modelled by T. gondii-CpIMPDH proliferation.

wild-type T. gondii = assay: Fluorescent T. gondii growth assay, wild-type strain; format: cell-based, Toxoplasma gondii; details: Toxoplasma gondii, wild-type T. gondii, no added xanthine; read-out: T. gondii model EC50 WT
Source text: as §1, §2

C. parvum [2] = assay: High-content imaging C. parvum growth assay (FITC-VVL); format: cell-based, Cryptosporidium parvum; details: for EC50: Cryptosporidium parvum, HCT-8, 48 h, growth in HCT-8 cells, 48 hours
Procedure: The human ileocecal adenocarcinoma epithelial cell line, HCT-8, was used to support C. parvum infection in vitro. HCT-8 cells were maintained in RPMI-1640 (Hyclone) supplemented with 10% FBS, 1 mM sodium pyruvate, 50 U/m penicillin, 50 µg/ml streptomycin, and amphotericin B. Cryptosporidium parvum oocysts were a kind gift from either Dr. Mead (Emory University) or Dr. Kissinger (University of Georgia). HCT-8 cells (2×10^5) were seeded into black, optical quality, thin bottom, 96-well plates (DB Falcon) to achieve a 70% confluent monolayer on the day of infection. To facilitate oocyst excystation, a procedure described by Gut et al., was followed. Briefly, oocysts were washed twice with 1 ml of PBS (pH 7.2), incubated for 10 minutes at 37°C in 1 ml 10 mM of HCl and then incubated for a further 10 minutes in 0.2 ml of 200 µM sodium taurocholate at 15°C [40]. This oocyst suspension was diluted directly with DMEM (Hyclone) supplemented with 2% FBS, 50 U/ml penicillin, 50 µg/ml streptomycin, amphotericin B and 0.2 mM L-glutamine (infection medium) to inoculate host cell monolayers at 5×10^5 oocysts per well. Host cell monolayers were incubated for 3 hours at 37°C prior to removal of unexcysted oocysts by aspiration and PBS wash. Infection medium was then added to the monolayers and infection was allowed to progress for 48 hours.
The VVL IFA was performed in a 96-well format. Following 48 hours of culture C. parvum infected HCT-8 cells were washed with PBS and fixed with 0.2 ml/well of 3% paraformaldehyde/PBS, permeabilized with 0.25% Triton-X-100/PBS and blocked with 4% BSA/PBS. 0.1 ml of fluorescein (FITC)-conjugated VVL (Vector Labs 0.5 µg/ml) in 1% BSA/PBS was applied to wells and incubated for 45 minutes. The plates were washed twice with 200 µl/well of PBS. In the first wash DAPI was included at 0.1 µg/ml. Finally 200 µl/well of PBS was added to the plates prior to storage at 4°C protected from light.
Confocal images were acquired using a BD Biosciences Bioimager P435. The instrument was programmed to automatically change position and focus, capture montage images of 9–16, 40× fields per well, and then compress and save the image files. Object finding algorithms were developed for the recognition of FITC-VVL labelled C. parvum parasites and DAPI labelled host cell nuclei using Attovision Software (BD Biosciences). Briefly, to identify FITC-VVL labelled parasites, the object finding algorithm included, a flat field correction, a polygon shape setting, a 3×3 rolling ball filter, manual pixel intensity thresholding (100 min – 4095 max), and minimum and maximum object size cut-offs of 5 pixels and 350 pixels respectively. The algorithm optimised for finding DAPI labelled host cell nuclei also included flat field correction and polygon shape setting, but applied a 25×25 rolling ball filter which is more suitable for larger objects, an automated pixel intensity threshold, minimum and maximum object size cut-offs of 200 pixels and 4000 pixels respectively, and a watershed step with an erosion factor of 8 to aid in the separation of adjacent densely packed nuclei. Note that the intensity and area size cut off exclude detection of the much smaller parasite nuclei (the human genome is three hundred times larger than the C. parvum genome).
The object finding analysis steps described above recorded the number and area of objects per montage image. The output files along with a plate map file were then passed to an automated analysis pipeline (Pipeline Pilot Software, Accelrys) to calculate the mean number of parasites, the ratio of parasite number to host cell nuclei number, the mean area of parasites and host cell nuclei by well, and the percentage growth by treatment as compared to the no drug control. These analyses were exported in graphical format for each plate and the numerical values tabulated in html format. […]

CpIMPDH [3] = target: T1, CpIMPDH; details: read-out: CpIMPDH Inhibition IC50 + BSA; cited from earlier work
C. parvum [4] = details: several previous studies; read-out: reported EC50 values for C. parvum growth; cited from earlier work

SMILES | EC50 (T. gondii-ΔHXGPRT) | activity at 25 µM (HCT-8 cells) | selectivity for the T. gondii-CpIMPDH parasite over wild-type T. gondii (T. gondii-CpIMPDH) | Selectivity = EC50(T. gondii-wild-type)/EC50(T. gondii-CpIMPDH) (T. gondii-CpIMPDH) | EC50 (T. gondii-CpIMPDH) | IC50 (CpIMPDH [1]; in the presence of BSA) | IC50 (CpIMPDH [1]; without BSA) | EC50 (wild-type T. gondii) | EC50 (C. parvum [2]) | IC50 (CpIMPDH [3]) | EC50 (C. parvum [4]) | effect on host cell (HCT-8) growth (HCT-8 cells; in words) | mean parasite area (C. parvum [2]; relative to DMSO alone) | parasites observed relative to the no drug control (C. parvum [2]; very high concentrations of paromomycin)
CC(Oc1cccc2ncccc12)c1cn(-c2ccc(Cl)cc2)nn1 (stereo not shown) [Compound A99] | 3.4 µM | 58 ± 8% | ≥ 17 fold | > 17 | < 0.2 µM | 0.076 ± 0.009 µM | 0.031 ± 0.001 µM | 4.7 µM | 12 to 25 µM | – | – | – | – | –
C[C@@H](Oc1cccc2c1ccc[n+]2[O-])c1cn(-c2ccc(Cl)cc2)nn1 [Compound A109] | > 25 µM | 89 ± 16% | ≥ 36 fold | > 86 | 0.3 ± 0.1 µM | – | – | > 25 µM | 12 to 25 µM | 0.05 ± 0.01 µM | – | – | – | –
NC[C@@H]1O[C@H](O[C@H]2[C@@H](O)[C@H](O[C@@H]3[C@@H](O)[C@H](N)C[C@H](N)[C@H]3O[C@H]3O[C@H](CO)[C@@H](O)[C@H](O)[C@H]3N)O[C@@H]2CO)[C@H](N)[C@@H](O)[C@@H]1O [paromomycin, reference compound] | – | – | – | – | – | – | – | – | 97 µM | – | 65 to 130 µM | negligible effects on the growth of these cells | significantly reduce the mean parasite area in a dose responsive manner | ~30%
